From patent USRE47302E1 (ONYX THERAPEUTICS INC., priority 2013, dated 2019)
In brackets after ≈: the same amount, converted by molar mass. Read-outs that look alike come from different tables or passages of the source.

Legend:
[1] = target: human constitutive 20S proteasome (c20S) (Homo sapiens, UniProt P28074); test: 20S proteasome assay, chymotrypsin-like activity (succinyl-Leu-Leu-Val-Tyr-AMC), c20S; assay type: biochemical; settings: LLVY substrate, 1 h continuous
Description: (§1) Assay buffer consisted of TE buffer [20 mmol/L Tris (pH 8.0), 0.5 mmol/L EDTA] with (20S) or without (cell lysate) 0.03% SDS. Reactions were initiated by enzyme or lysate addition and monitored for AMC product formation at 27jC with a plate-based spectofluorometer (Tecan).

Solubility pH 7 = settings: pH 7, aqueous buffer
[2] = target: human 20S immunoproteasome (i20S) (Homo sapiens, UniProt P28062); test: 20S proteasome assay, chymotrypsin-like activity (succinyl-Leu-Leu-Val-Tyr-AMC), i20S; assay type: biochemical
Description: as §1

[3] = target: T1, immunoproteasome subunit LMP7 (Homo sapiens, UniProt P28062); test: Proteasome active-site ELISA (ProCISE), LMP7, MOLT-4 lysate; assay type: biochemical; settings: read-out: ProCISE LMP7 MOLT4 lysate Hu 1 h CONT: IC50, 1 h continuous treatment, 25° C.
T1 construct: Lysate from the human acute lymphoblastic leukemia cell line, MOLT-4; endogenous in cells; host or cells: MOLT-4
Method in brief: (§2)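 MOLT-4 cell lysate treated 1 h at 25 °C with compound; probe-bound subunits denatured, pulled down on streptavidin beads and detected with subunit-specific antibodies plus HRP chemiluminescence.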

[4] = target: T2, proteasome subunit β5 (beta5) (Homo sapiens, UniProt P28074); test: Proteasome active-site ELISA (ProCISE), beta5, MOLT-4 lysate; assay type: biochemical; settings: read-out: ProCISE beta5 MOLT4 lysate Hu 1 h CONT: IC50; MOLT4 lysate, human, 1 h continuous treatment, 25° C.
T2 construct: Lysate from the human acute lymphoblastic leukemia cell line, MOLT-4; endogenous in cells; host or cells: MOLT-4
Method in brief: as §2

[5] = read-out: LLVY i20S Hu 1 h CONT: IC50, LLVY substrate, 1 h continuous

Row | Compound | IC50 [1] | solubility (Solubility pH 7) | IC50 ([2]; LLVY substrate, 1 h continuous) | IC50 [3] | IC50 [2, 5] | IC50 [4]
1 | COc1ccc(C[C@H](NC(=O)[C@@H](C)NC(=O)[C@H]2CCCO2)C(=O)N[C@@H](CC2CCCC2)C(=O)[C@@]2(C)CO2)cc1 [Compound C-1032, (R)-N-((R)-1-(((S)-1-(((S)-3-cyclopentyl-1-((R)-2-methyloxiran-2-yl)-1-oxopropan-2-yl)amino)-3-(4-methoxyphenyl)-1-oxopropan-2-yl)amino)-1-oxopropan-2-yl)tetrahydrofuran-2-carboxamide] | 24.8 µM | 251 µg/mL (≈ 0.462 mM) | 436 nM |  |  | 
2 | COc1ccc(C[C@H](NC(=O)[C@@H](C)NC(=O)[C@@H]2CCCO2)C(=O)N[C@@H](CC2CCCC2)C(=O)[C@@]2(C)CO2)cc1 [Compound C-1031, (S)-N-((R)-1-(((S)-1-(((S)-3-cyclopentyl-1-((R)-2-methyloxiran-2-yl)-1-oxopropan-2-yl)amino)-3-(4-methoxyphenyl)-1-oxopropan-2-yl)amino)-1-oxopropan-2-yl)tetrahydrofuran-2-carboxamide] | > 250 µM | 462 µg/mL (≈ 0.85 mM) | 2980 nM |  |  | 
3 | COc1ccc(C[C@H](NC(=O)[C@H](C)NC(=O)CN2CCOCC2)C(=O)N[C@@H](C[C@H]2CCC(F)(F)C2)C(=O)[C@@]2(C)CO2)cc1 [Compound C-1034, (S)-N-((S)-3-((R)-3,3-difluorocyclopentyl)-1-((R)-2-methyloxiran-2-yl)-1-oxopropan-2-yl)-3-(4-methoxyphenyl)-2-((S)-2-(2-morpholinoacetamido)propanamido)propanamide] | 25.4 µM | 2780 µg/mL (≈ 4.57 mM) | 1050 nM |  |  | 
4 | COc1ccc(C[C@H](NC(=O)[C@H](C)NC(=O)CN2CCOCC2)C(=O)N[C@@H](C[C@@H]2CCC(F)(F)C2)C(=O)[C@@]2(C)CO2)cc1 [Compound C-1033, (S)-N-((S)-3-((S)-3,3-difluorocyclopentyl)-1-((R)-2-methyloxiran-2-yl)-1-oxopropan-2-yl)-3-(4-methoxyphenyl)-2-((S)-2-(2-morpholinoacetamido)propanamido)propanamide] | 121 µM | 3210 µg/mL (≈ 5.28 mM) | 3100 nM |  |  | 
5 | COc1ccc(C[C@H](NC(=O)[C@@H](NC(=O)CN2CCOCC2)C2(O)CC2)C(=O)N[C@@H](Cc2ccccc2)C(=O)[C@@]2(C)CO2)cc1 [Compound C-1184] |  | 2730 µg/mL (≈ 4.39 mM) |  | 19.5 nM | 10.5 nM | 63.9 nM
6 | COc1ccc(C[C@H](NC(=O)[C@@H](NC(=O)CN2CCOCC2)[C@@H](C)O)C(=O)N[C@@H](Cc2ccccc2)C(=O)[C@@]2(C)CO2)cc1 [Compound C-1173] |  | 2340 µg/mL (≈ 3.84 mM) |  | 28.9 nM | 33.6 nM | 114 nM
7 | COc1ccc(C[C@H](NC(=O)[C@H](C)NC(=O)CN2CCOCC2)C(=O)N[C@@H](Cc2cccc(F)c2)C(=O)[C@@]2(C)CO2)cc1 [Compound C-1180] |  | 1380 µg/mL (≈ 2.31 mM) |  | 21 nM | 25.9 nM | 312 nM
8 | C[C@H](NC(=O)CN1CCOCC1)C(=O)N[C@@H](Cc1ccncc1)C(=O)N[C@@H](Cc1ccccc1)C(=O)[C@@]1(C)CO1 [Compound C-1171] |  | 1680 µg/mL (≈ 3.05 mM) |  | 51 nM | 63.1 nM | 252 nM
9 | COc1ccc(C[C@H](NC(=O)[C@@H](C)NC(=O)[C@H]2CCC(=O)NC2)C(=O)N[C@@H](CC2CCCC2)C(=O)[C@@]2(C)CO2)cc1 [Compound C-1059, (S)-N-((R)-1-(((S)-1-(((S)-3-cyclopentyl-1-((R)-2-methyloxiran-2-yl)-1-oxopropan-2-yl)amino)-3-(4-methoxyphenyl)-1-oxopropan-2-yl)amino)-1-oxopropan-2-yl)-6-oxopiperidine-3-carboxamide] | 38.4 µM | 6010 µg/mL (≈ 10.5 mM) | 1650 nM |  |  | 
10 | C[C@H](NC(=O)CN1CCOCC1)C(=O)N[C@@H](Cc1cccnc1)C(=O)N[C@@H](Cc1ccccc1)C(=O)[C@@]1(C)CO1 [Compound C-1175] |  | 2480 µg/mL (≈ 4.49 mM) |  | 107 nM | 129 nM | 441 nM
11 | C=CC(=O)NC[C@H](NC(=O)[C@H](C)NC(=O)CN1CCOCC1)C(=O)N[C@@H](Cc1ccccc1)C(=O)[C@@]1(C)CO1 [Compound C-1225] |  | 3450 µg/mL (≈ 6.34 mM) |  | 49.5 nM | 18.6 nM | 205 nM
12 | COc1ccc(C[C@H](NC(=O)[C@@H](C)NC(=O)[C@@H]2CCC(=O)NC2)C(=O)N[C@@H](CC2CCCC2)C(=O)[C@@]2(C)CO2)cc1 [Compound C-1058, (R)-N-((R)-1-(((S)-1-(((S)-3-cyclopentyl-1-((R)-2-methyloxiran-2-yl)-1-oxopropan-2-yl)amino)-3-(4-methoxyphenyl)-1-oxopropan-2-yl)amino)-1-oxopropan-2-yl)-6-oxopiperidine-3-carboxamide] | 54.8 µM | 3010 µg/mL (≈ 5.27 mM) | 1610 nM |  |  | 
13 | COc1ccc(C[C@H](NC(=O)[C@@H](C)NC(=O)[C@@H]2CCOC2)C(=O)N[C@@H](CC2CCCC2)C(=O)[C@@]2(C)CO2)cc1 [Compound C-1036, (R)-N-((R)-1-(((S)-1-(((S)-3-cyclopentyl-1-((R)-2-methyloxiran-2-yl)-1-oxopropan-2-yl)amino)-3-(4-methoxyphenyl)-1-oxopropan-2-yl)amino)-1-oxopropan-2-yl)tetrahydrofuran-3-carboxamide] | 16.5 µM | 277 µg/mL (≈ 0.51 mM) | 480 nM |  |  | 

The remaining molecules from weak to strong by IC50 [1], led by results:

Row | IC50 [1] | solubility (Solubility pH 7) | IC50 ([2]; LLVY substrate, 1 h continuous) | IC50 [3] | IC50 [2, 5] | IC50 [4] | Compound
14 | 9.09 µM | 1900 µg/mL (≈ 3.25 mM) | 2580 nM |  |  |  | COc1ccc(C[C@H](NC(=O)[C@H](C)NC(=O)CN2CCOCC2)C(=O)N[C@@H](CC2=C(C)CCC2)C(=O)[C@@]2(C)CO2)cc1 [Compound C-1044, (S)-3-(4-methoxyphenyl)-N-((S)-3-(2-methylcyclopent-1-en-1-yl)-1-((R)-2-methyloxiran-2-yl)-1-oxopropan-2-yl)-2-((S)-2-(2-morpholinoacetamido)propanamido)propanamide]
15 | 5.86 µM | 1330 µg/mL (≈ 2.44 mM) | 356 nM |  |  |  | COc1ccc(C[C@H](NC(=O)[C@@H](C)NC(=O)[C@H]2CCOC2)C(=O)N[C@@H](CC2CCCC2)C(=O)[C@@]2(C)CO2)cc1 [Compound C-1037, (S)-N-((R)-1-(((S)-1-(((S)-3-cyclopentyl-1-((R)-2-methyloxiran-2-yl)-1-oxopropan-2-yl)amino)-3-(4-methoxyphenyl)-1-oxopropan-2-yl)amino)-1-oxopropan-2-yl)tetrahydrofuran-3-carboxamide]
16 | 3.38 µM | 1430 µg/mL (≈ 2.42 mM) | 2500 nM |  |  |  | COc1ccc(C[C@H](NC(=O)[C@H](C)NC(=O)CN2CCOCC2)C(=O)N[C@@H](CC2CCCC2)C(=O)[C@@]2(C)CO2)c(F)c1 [Compound C-1008, (S)-N-((S)-3-cyclopentyl-1-((R)-2-methyloxiran-2-yl)-1-oxopropan-2-yl)-3-(2-fluoro-4-methoxyphenyl)-2-((S)-2-(2-morpholinoacetamido)propanamido)propanamide]
17 | 0.694 µM | 7010 µg/mL (≈ 12.2 mM) | 202 nM |  |  |  | C[C@H](NC(=O)CN1CCOCC1)C(=O)N[C@@H](Cc1ccc(O)c(O)c1)C(=O)N[C@@H](CC1CCCC1)C(=O)[C@@]1(C)CO1 [Compound C-1039, (S)-N-((S)-3-cyclopentyl-1-((R)-2-methyloxiran-2-yl)-1-oxopropan-2-yl)-3-(3,4-dihydroxyphenyl)-2-((S)-2-(2-morpholinoacetamido)propanamido)propanamide]
18 | 0.548 µM | 911 µg/mL (≈ 1.71 mM) | 445 nM |  |  |  | C[C@H](NC(=O)CN1CCOCC1)C(=O)N[C@@H](Cc1ccco1)C(=O)N[C@@H](CC1CCCC1)C(=O)[C@@]1(C)CO1 [Compound C-1013, (S)-N-((S)-3-cyclopentyl-1-((R)-2-methyloxiran-2-yl)-1-oxopropan-2-yl)-3-(furan-2-yl)-2-((S)-2-(2-morpholinoacetamido)propanamido)propanamide]
19 | 0.47 µM | 50.2 µg/mL (≈ 0.083 mM) | 308 nM |  |  |  | COc1ccc(C[C@H](NC(=O)[C@H](C)NC(=O)CN2CCC(Cl)CC2)C(=O)N[C@@H](CC2CCCC2)C(=O)[C@@]2(C)CO2)cc1 [Compound C-1045, (S)-2-((S)-2-(2-(4-chloropiperidin-1-yl)acetamido)propanamido)-N-((S)-3-cyclopentyl-1-((R)-2-methyloxiran-2-yl)-1-oxopropan-2-yl)-3-(4-methoxyphenyl)propanamide]
20 | 0.404 µM | 79.2 µg/mL (≈ 0.131 mM) | 251 nM |  |  |  | COc1ccc(C[C@H](NC(=O)[C@H](C)NC(=O)CN2CCCC(F)(F)C2)C(=O)N[C@@H](CC2CCCC2)C(=O)[C@@]2(C)CO2)cc1 [Compound C-1043, (S)-N-((S)-3-cyclopentyl-1-((R)-2-methyloxiran-2-yl)-1-oxopropan-2-yl)-2-((S)-2-(2-(3,3-difluoropiperidin-1-yl)acetamido)propanamido)-3-(4-methoxyphenyl)propanamide]
21 | 0.301 µM | 1910 µg/mL (≈ 3.35 mM) | 113 nM |  |  |  | C[C@H](NC(=O)CN1CCOCC1)C(=O)N[C@@H](Cc1ccc(F)cn1)C(=O)N[C@@H](Cc1ccccc1)C(=O)[C@@]1(C)CO1 [Compound C-1154, (S)-3-(5-fluoropyridin-2-yl)-N-((S)-1-((R)-2-methyloxiran-2-yl)-1-oxo-3-phenylpropan-2-yl)-2-((S)-2-(2-morpholinoacetamido)propanamido)propanamide]
